Data: patent publication US8697724B2, “Crystalline oxalate salts of a diamide compound” (Theravance, Inc., priority 2010, dated 2014)
Counter-ions that a name gives are not always drawn.

Key:
[1] = tested on: methacholine (MCh)-induced bronchoconstriction; assay: Einthoven assay: bronchoprotection against methacholine-induced bronchoconstriction; format: in vivo, rat; details: male Sprague-Dawley rats, inhalation, 100 μg, at 24 h
Method: This assay measures the ability of a test compound to provide bronchoprotection against methacholine (MCh)-induced bronchoconstriction in a rat.
Male Sprague-Dawley rats (Harlan, Indianapolis, Ind.), weighing between 200 g and 350 g, were used for all studies.
Test compound or vehicle (sterile deionized water) were dosed by inhalation (IH) over a 10 min period in a pie shaped inhalation chamber (R+S Molds, San Carlos, Calif.) using 5 mL of dosing solution. Rats were exposed to an aerosol, which was generated from an LC Star Nebulizer Set Model 22F51 (PARI Respiratory Equipment, Inc. Midlothian, Va.) driven by Bioblend (5% CO2/95% atmospheric air) at a pressure of 22 psi. Rats were dosed with 100 μg of test compound unless otherwise indicated.
At predetermined time points, rats were anesthetized with an intraperitoneal (IP) injection of 120 mg/kg inactin (thiobutabarbital). A supplemental dose (40 mg/kg, IP) was administered if the animal responded to physical stimuli (e.g. toe pinch). The surgical site was shaved and a 1-2 cm midline incision of the ventral aspect of the neck was made. […]
Changes in VP were recorded using the Acknowledge Data Collection Software (Santa Barbara, Calif.). […] Changes in ventilation pressure (cm H2O) in treated animals are expressed as % inhibition of MCh response relative to control animals.

[2] = Differential scanning calorimetry (thermal stability); format: physicochemical; details: DSC traces, 10° C./min
Method: Differential scanning calorimetry (DSC) was performed using a TA Instruments Model Q-100 module with a Thermal Analyst controller. Data were collected and analyzed using TA Instruments Thermal Solutions software. A sample of about 2 mg was accurately weighed into an aluminum pan with lid. The sample was evaluated using a linear heating ramp of 10° C./min from ambient temperature to approximately 300° C. The DSC cell was purged with dry nitrogen during use. Representative DSC traces for Form 1 and Form 2 are shown in FIG. 2 and FIG. 5, respectively.

[3] = Dynamic moisture sorption (DMS) assessment; format: physicochemical
Method: A dynamic moisture sorption (DMS) assessment (also known as a moisture sorption-desorption profile) was performed for a sample of Form 2 using a VTI atmospheric microbalance, SGA-100 system (VTI Corp., Hialeah, Fla. 33016). A sample size of approximately 10 mg was used and the humidity was set at the ambient value at the start of the analysis. A typical DMS analysis consisted of three scans: ambient to 5% relative humidity (RH), 5% RH to 90% RH, 90% RH to 5% RH at a scan rate of 5% RH/step. The mass was measured every two minutes and the RH was changed to the next value (+/−5% RH) when the mass of the sample was stable to within 0.01% for 5 consecutive points.

[4] = reversible moisture sorption/desorption profile

Question: With `CN(CCCCC(=O)Nc1ccc(CNC[C@H](O)c2ccc(O)c3[nH]c(=O)ccc23)cc1)C(=O)CCN1CCC(OC(=O)Nc2ccccc2-c2ccccc2)CC1` [Biphenyl-2-ylcarbamic Acid 1-(2-{[4-(4-{[(R)-2-hydroxy-2-(8-hydroxy-2-oxo-1,2-dihydroquinolin-5-yl)ethylamino]methyl}phenylcarbamoyl)-butyl]methylcarbamoyl}ethyl)piperidin-4-yl Ester Ditrifluoroacetic Acid Salt] as the compound, how does the “% inhibition of MCh response” value [1] read?
Answer: at least 40%

Question: With `CN(CCCCC(=O)Nc1ccc(CNC[C@H](O)c2ccc(O)c3[nH]c(=O)ccc23)cc1)C(=O)CCN1CCC(OC(=O)Nc2ccccc2-c2ccccc2)CC1` [Form 1, Biphenyl-2-ylcarbamic Acid 1-(2-{[4-(4-{[(R)-2-Hydroxy-2-(8-hydroxy-2-oxo-1,2-dihydroquinolin-5-yl)ethylamino]methyl}-phenylcarbamoyl)butyl]methylcarbamoyl}ethyl)piperidin-4-yl Ester Oxalate Isopropanol Solvate Salt (Form 1)] as the compound, how does the thermal stability [2] read?
Answer: excellent thermal stability

Question: Which “change in physical form during moisture sorption and desorption (PXRD before and after DMS)” value ([3]; PXRD profiles before and after the DMS experiment) does the source give for `CN(CCCCC(=O)Nc1ccc(CNC[C@H](O)c2ccc(O)c3[nH]c(=O)ccc23)cc1)C(=O)CCN1CCC(OC(=O)Nc2ccccc2-c2ccccc2)CC1` [Form 2, Biphenyl-2-ylcarbamic Acid 1-(2-{[4-(4-{[(R)-2-Hydroxy-2-(8-hydroxy-2-oxo-1,2-dihydroquinolin-5-yl)ethylamino]methyl}-phenylcarbamoyl)butyl]methylcarbamoyl}ethyl)piperidin-4-yl Ester Oxalate Hydrate Salt (Form 2)] here?
Answer: no change in physical form occurred

Question: What about the “weight gain (moisture sorption)” value ([3]; humidity range of 5% RH to 90% RH) of the same compound?
Answer: about 1.6 weight %

Question: What about the deliquescence [3, 4] of the same compound?
Answer: not deliquescent

Question: What about the hygroscopicity [3, 4] of the same compound?
Answer: acceptable hygroscopicity
